Read-outs that look alike come from different tables or passages of the source.

The target of assay [1] is T1, serotonin 5-HT2B receptor (Homo sapiens, UniProt P41595). The following applies: in vitro, literature; cited from earlier work.
Assay [2] has as its target T2, serotonin 5-HT1A receptor (Homo sapiens, UniProt P08908).
T2 sequence (P08908 1-422): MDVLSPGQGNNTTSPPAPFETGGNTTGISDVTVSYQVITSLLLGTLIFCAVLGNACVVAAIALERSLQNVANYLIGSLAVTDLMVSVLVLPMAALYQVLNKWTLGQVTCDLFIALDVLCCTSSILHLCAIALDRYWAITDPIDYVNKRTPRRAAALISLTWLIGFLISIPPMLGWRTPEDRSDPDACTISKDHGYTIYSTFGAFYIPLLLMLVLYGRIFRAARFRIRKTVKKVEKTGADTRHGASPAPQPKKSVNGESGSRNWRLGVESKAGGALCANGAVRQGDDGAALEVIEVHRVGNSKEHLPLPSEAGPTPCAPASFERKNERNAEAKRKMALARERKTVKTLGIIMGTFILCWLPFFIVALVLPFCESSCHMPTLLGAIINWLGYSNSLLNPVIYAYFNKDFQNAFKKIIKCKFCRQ
The following applies: in vitro, literature; cited from earlier work.

Assay [3] has as its target T2, serotonin 5-HT1A receptor. The following applies: literature; cited from earlier work.
Assay [4] has as its system ASD mouse models (prenatal valproate, Cntnap2 knockout, NR1 hypomorph, BTBR). As to conditions: several ASD mouse models, literature; cited from earlier work.
Assay [5] deals with prenatally valproate-treated mice. The following applies: Hara et al. 2017, cited from earlier work.
The subject of a further assay is ASD patients. As to conditions: cited from earlier work.
For assay [6], the target named is T3, dopamine D2 receptor (Homo sapiens, UniProt P14416). As to conditions: cited from earlier work.
In assay [7] the target is T1, serotonin 5-HT2B receptor. As to conditions: literature; cited from earlier work.
Assay [8] deals with T3, dopamine D2 receptor. Kind of assay: functional activity at dopamine D2 receptor. The format is biochemical. As to conditions: Compound 2, company data.
Assay [9] concerns the target T1, serotonin 5-HT2B receptor. The assay is described as follows: functional activity at serotonin 5-HT2B receptor. The format is biochemical. As to conditions: Compound 2, company data.
Assay [10] addresses T2, serotonin 5-HT1A receptor. The following applies: Compound 2, company data.
In another assay the test system is dopamine D2 receptors. The following applies: in vivo; cited from earlier work.
The test system of another assay is Fmr1 knock-out mice. The following applies: Lim et al. 2014; cited from earlier work.

T1 sequence (P41595 whole entry): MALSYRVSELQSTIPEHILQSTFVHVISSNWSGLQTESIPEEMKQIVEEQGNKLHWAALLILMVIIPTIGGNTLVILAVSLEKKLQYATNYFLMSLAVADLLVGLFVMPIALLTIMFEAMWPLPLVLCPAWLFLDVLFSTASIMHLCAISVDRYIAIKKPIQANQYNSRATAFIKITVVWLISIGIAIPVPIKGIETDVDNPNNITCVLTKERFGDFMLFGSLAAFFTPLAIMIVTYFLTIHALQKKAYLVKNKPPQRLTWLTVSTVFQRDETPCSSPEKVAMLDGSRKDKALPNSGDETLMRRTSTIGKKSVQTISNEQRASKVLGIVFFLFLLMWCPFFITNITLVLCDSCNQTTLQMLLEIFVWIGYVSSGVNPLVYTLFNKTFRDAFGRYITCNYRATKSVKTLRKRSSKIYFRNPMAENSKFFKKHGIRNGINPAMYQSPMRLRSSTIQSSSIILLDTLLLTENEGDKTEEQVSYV
T3 sequence (P14416 whole entry): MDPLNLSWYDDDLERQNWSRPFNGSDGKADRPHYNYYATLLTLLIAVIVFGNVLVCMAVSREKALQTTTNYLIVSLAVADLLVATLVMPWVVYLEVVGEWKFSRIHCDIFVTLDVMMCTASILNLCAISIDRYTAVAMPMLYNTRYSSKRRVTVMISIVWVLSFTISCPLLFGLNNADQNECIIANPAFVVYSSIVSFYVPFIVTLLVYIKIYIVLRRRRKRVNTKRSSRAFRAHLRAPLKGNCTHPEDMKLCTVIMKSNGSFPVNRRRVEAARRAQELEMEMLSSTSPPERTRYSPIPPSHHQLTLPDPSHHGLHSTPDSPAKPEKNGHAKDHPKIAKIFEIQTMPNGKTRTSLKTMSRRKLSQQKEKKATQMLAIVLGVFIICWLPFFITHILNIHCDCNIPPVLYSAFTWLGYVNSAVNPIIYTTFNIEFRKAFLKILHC

On to `O=C1CCc2ccc(OCCCCN3CCN(c4cccc(Cl)c4Cl)CC3)cc2N1` [aripiprazole], for which the “affinity for 5-HT2B receptor (in words)” value in [1] is recorded as “high affinity”. Also, the “affinity for 5-HT1A receptor (in words)” value in assay [2] was “high affinity”. Also, in [3], the “functional character at serotonin 5-HT1A receptor” value is recorded as “partial agonist”. Further, the “effect on social behavior deficits” value in assay [4] was “neither aripiprazole nor risperidone could improve”. Further, the “effect on core behavioral deficits” value in [5] (acute treatment) was “without effect”; in [5] (chronic administration) it was “improved core behavioral deficits”. In addition, in the assay with ASD patients (open label trials), the “lethargy/social withdrawal subscale of the Aberrant Behavioral Checklist” value is reported as “did not improve”.

With `CN(C)C(=O)N[C@H]1CC[C@H](CCN2CCN(c3cccc(Cl)c3Cl)CC2)CC1` [cariprazine, trans-N-[4-[2-[4-(2,3-dichlorophenyl)piperazin-1-yl]ethyl]cyclohexyl]-N′,N′-dimethylurea], the “functional character at dopamine D2 receptor” value on dopamine D2 receptor [6] is recorded as “partial agonist”. In addition, the “functional character at serotonin 5-HT2B receptor” value in [7] is given as “full antagonist”. In assay [3], the “functional character at serotonin 5-HT1A receptor” value is reported as “weak partial agonists” and the “intrinsic activity at serotonin 5-HT1A receptor” value is given as 38%.

As to `O=C(N[C@H]1CC[C@H](CCN2CCN(c3cccc(Cl)c3Cl)CC2)CC1)N1CCOCC1` [Compound 2, trans-N-(4-{2-[4-(2,3-dichloro-phenyl)-piperazine-1-yl]-ethyl}-cyclohexyl)-morpholine-4 carboxamide], the “functional character at dopamine D2 receptor” value on dopamine D2 receptor [8] was “partial agonist”. Also, the “functional character at serotonin 5-HT2B receptor” value in assay [9] is listed as “full antagonist”. In assay [10], the “functional character at serotonin 5-HT1A receptor” value is reported as “weak partial agonists”.

`Cc1nc2n(c(=O)c1CCN1CCC(c3noc4cc(F)ccc34)CC1)CCCC2` [risperidone]: the “occupancy of dopamine D2 receptors” value with dopamine D2 receptors is on record as “occupy dopamine D2 receptors”. Besides, the “effect on social behavior deficits” value in [4] is given as “neither aripiprazole nor risperidone could improve”. In addition, the “effect on core behavioral deficits” value is recorded as “without effect” in assay [5] (acute treatment) and “improved core behavioral deficits” in assay [5] (chronic administration). In addition, the “effect on core symptoms” value in the assay on ASD patients (children with pervasive developmental disorders with high baseline irritability) is recorded as “modest improvements”.

In the case of `CC(N)Cc1c[nH]c2ccc(OCc3cccs3)cc12` (centres unmarked) [BW723C86], the “effect on cognitive abilities” value in the assay on Fmr1 knock-out mice is given as “improvement of cognitive abilities”.

The values are drawn from patent US11547707B2, “Carbamoyl cyclohexane derivatives for treating autism spectrum disorder” (Richter Gedeon Nyrt., priority 2019, dated 2023).
